According to PubChem BioAssay (NCI):
Values joined by “and” are separate entries in the source; they are usually repeats but may differ in a detail not shown here. Equal values may be shown once.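 How tested: cells in 96-well plates exposed to compound for 48 hours at five concentrations. GI50 = concentration required for 50% inhibition of growth. The concentration for full growth arrest is given as TGI.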

Key:
Assay in all cases: growth of human tumour cells (NCI), 48 h
SK-MEL-28 melanoma = system: SK-MEL-28 melanoma
U251 CNS = system: U251 CNS
T-47D breast = system: T-47D breast
RXF 393 renal = system: RXF 393 renal
CCRF-CEM leukemia = system: CCRF-CEM leukemia
UACC-257 melanoma = system: UACC-257 melanoma
OVCAR-4 ovarian = system: OVCAR-4 ovarian
HS 578T breast = system: HS 578T breast
OVCAR-3 ovarian = system: OVCAR-3 ovarian
MALME-3M melanoma = system: MALME-3M melanoma

SMILES	TGI (SK-MEL-28 melanoma)	TGI (U251 CNS)	TGI (T-47D breast)	TGI (RXF 393 renal)	TGI (CCRF-CEM leukemia)	TGI (UACC-257 melanoma)	TGI (OVCAR-4 ovarian)	TGI (HS 578T breast)	GI50 (SK-MEL-28 melanoma)	GI50 (U251 CNS)	GI50 (T-47D breast)	GI50 (OVCAR-3 ovarian)	TGI (OVCAR-3 ovarian)	GI50 (MALME-3M melanoma)	TGI (MALME-3M melanoma)	GI50 (RXF 393 renal)	GI50 (CCRF-CEM leukemia)	GI50 (UACC-257 melanoma)	GI50 (OVCAR-4 ovarian)	GI50 (HS 578T breast)
O=C1CC(c2ccccc2)Oc2ccccc21 (stereo unspecified)	> 100 µM	> 100 µM	> 100 µM	94.4 µM	57.4 µM	> 100 µM	> 100 µM	> 100 µM												
O=C(Nc1cccc(-n2cc(-c3ccncc3)c(-c3cc(O)cc(Cl)c3)n2)c1)c1ccc(N2CCOCC2)c(C(F)(F)F)c1	3.27 µM	6.3 µM	> 100 µM	1.9 µM	> 100 µM	8.48 µM	> 100 µM	> 100 µM	0.759 µM	1.4 µM	3.81 µM	7.2 µM	> 100 µM	1.38 µM	5.19 µM	0.303 µM	0.543 µM	2.36 µM	> 100 µM	2.94 µM
O=C1NC(=N[C@@H](CO)c2ccccc2)S/C1=C\c1ccc2ncccc2c1	> 25 µM	> 25 µM	> 25 µM	> 25 µM	21.2 µM	> 25 µM	> 25 µM	> 25 µM	> 20.2 µM	11 µM	15.5 µM	14.8 µM	> 25 µM	13.4 µM	> 25 µM	5.84 µM	5.86 µM	13.9 µM	12.5 µM	4.84 µM
Nc1ncc(Cc2ccc3c(c2)OCO3)c(N)n1	> 100 µM	> 100 µM	> 100 µM	> 100 µM	> 100 µM	> 100 µM	> 100 µM	> 100 µM					> 100 µM		> 100 µM					
CCn1cc(C(=O)O)c(=O)c2cc(F)c(N3CCN(S(=O)(=O)c4cccc5ccccc45)CC3)cc21	> 100 µM	> 100 µM	> 100 µM	11.8 µM	> 100 µM	7.72 µM	> 100 µM	9.88 µM	6.09 µM	3.29 µM	3.35 µM	3.69 µM	15.6 µM	2.83 µM	7.83 µM	3.19 µM	3.67 µM	2.72 µM	2.6 µM	2.68 µM
Nc1nc2c(c3cnccc13)C(c1ccc(Cl)c(Cl)c1)Cc1cnccc1-2 (stereo unspecified)	19 µM	2.6 µM	18.2 µM	3.48 µM	12.6 µM	29.1 µM	25.1 µM	22 µM	2.85 µM	0.375 µM	0.333 µM	0.382 µM	5.86 µM	0.915 µM	18.6 µM	0.522 µM	0.388 µM	14.8 µM	4.28 µM	0.818 µM
COC1N(C2CC(O)C(CO)O2)C(=O)NC(=O)C1(F)Br (stereo unspecified)	50 µM and > 100 µM	50 µM and > 100 µM	> 100 µM	50 µM and > 100 µM	50 µM and > 75.4 µM	50 µM and > 100 µM	> 100 µM	> 95.5 µM	30 µM			> 50 µM	> 100 µM	35.1 µM	50 µM and > 100 µM	37.2 µM	27.6 µM	42.8 µM	> 59.1 µM	
CC1(C)OC[C@@H]([C@@]2(CO[Si](c3ccccc3)(c3ccccc3)C(C)(C)C)CC=CC(=O)O2)O1	48.3 µM	25.4 µM	> 100 µM	> 100 µM	> 100 µM	9.95 µM	> 100 µM	> 100 µM	16.7 µM	5.94 µM	8.03 µM	4.3 µM	> 100 µM	2.42 µM	8.48 µM	9.82 µM	6.63 µM	3.3 µM	16.1 µM	9.01 µM
CCN(C)c1nc(N(C)CC)c2nc(N(C)CC)nc(N(C)CC)c2n1	> 100 µM	> 100 µM	> 100 µM	> 100 µM	> 100 µM	> 100 µM	> 100 µM	> 100 µM					> 100 µM		> 100 µM					
COCC([C@@H](O)C(O)C(=O)NCC[C@@H](C)c1nc(/C=C/CC2OC3(C[C@H](O)C2C)OC(C(C[C@H](O)C(C)[C@H](O)C(C)/C=C(C)/C(C)=C/C=C/C(C)=C/C#N)OC)[C@@H](OP(=O)(O)O)C3(C)C)co1)N(C)C (stereo partly specified)	0.000323 µM	0.000332 µM	0.00195 µM			0.00232 µM	0.00274 µM	0.000391 µM					0.000326 µM		0.000316 µM					
COC(=O)OC1C(O[C@H]2C[C@H]3[C@@H]4CC=C5C[C@@H](O)CC[C@]5(C)[C@H]4CC[C@]3(C)[C@H]2[C@H](C)C(=O)CCC(C)C)OCC(O)C1OC1OCC(O)C(O)C1OC(=O)c1ccc(OC)cc1 (stereo partly specified)	0.0161 µM	3.91 µM	0.647 µM	0.00948 µM		0.0562 µM	> 27.5 µM	0.0416 µM	0.0043 µM	0.00297 µM	0.0209 µM	0.345 µM	16.8 µM	0.0184 µM	0.769 µM	< 0.00275 µM		0.00543 µM	0.0823 µM	< 0.00275 µM
CNCc1cccc2c1OCCOCCOCCN(C)S(=O)(=O)c1ccc(cc1)-c1cnc(N)c(n1)C(=O)N2	3.56 µM	3.37 µM	6.15 µM	2.58 µM	3.95 µM	5.64 µM		3.64 µM	1.74 µM	1.53 µM	2.25 µM	1.59 µM	9.79 µM	1.53 µM	3.72 µM	0.614 µM	0.549 µM	2.69 µM		0.663 µM
O=C(Nc1ccc(N=C=S)cc1Cl)c1cc(Br)cc(Br)c1O	> 100 µM	53.1 µM	> 100 µM	> 100 µM		48.9 µM	> 100 µM	69.4 µM					> 100 µM		> 100 µM					
CCNc1nc(O)c(/C=C2\C=Nc3ncccc32)s1	13.8 µM	8.24 µM	7.62 µM	4.29 µM	> 100 µM	15.5 µM	> 100 µM	8.29 µM	2.72 µM	2.6 µM	2.02 µM	2.66 µM	8.49 µM			2.05 µM	3.59 µM	4.17 µM	3.08 µM	2.95 µM
